For series [1] the following is noted: 298.15 K, 101.33 kPa, Liquid.
The nature of series [2]: refractive index (Na D-line) (dimensionless). The conditions noted are these: 298.15 K; 101.33 kPa; Liquid; Standard Abbe refractometry.

Numbers after ± are expanded uncertainties.

Experimental findings from the NIST ThermoML archive (doi:10.1016/j.fluid.2008.06.012) are described below.

As to `CCOS(=O)(=O)[O-].CCn1cc[n+](C)c1` [1-ethyl-3-methylimidazolium ethyl sulfate], the mass density in series [1] (Vibrating tube method) came out at 1238.17 ± 8.3 kg/m3. Besides, the refractive index in series [2] was found to be 1.47903 ± 0.0012.

Consider `CCCCCCCCCCCC` [dodecane], for which the mass density in series [1] was found to be 745.32 ± 0.91 kg/m3. Besides, in series [2], the refractive index stood at 1.42011 ± 0.0007.

For `CCCCCCC` [heptane], the mass density in series [1] is reported as 679.47 ± 0.66 kg/m3. In series [2], the refractive index turned out to be 1.38517 ± 0.00068.

In the case of `CCCCCCCCCCCCCCCC` [hexadecane], the mass density in series [1] was 771.15 ± 0.85 kg/m3. The refractive index in series [2] was determined as 1.43232 ± 0.0007.

Consider `CCCCCC` [hexane], for which, in series [1], the mass density came out at 655.06 ± 1.1 kg/m3. Also, in series [2], the refractive index is recorded as 1.37287 ± 0.0007.

As to `c1ccsc1` [thiophene], the mass density in series [1] was found to be 1058.59 ± 0.28 kg/m3. For the same compound, in series [2], the refractive index was determined as 1.5253 ± 0.00068.

Broadly, the mass density is the mass of a sample divided by its volume. For orientation: refractive index means a measure of how strongly the sample bends light.
